From article PMC7707092, “Discovery and characterization of ORM‐11372, a novel inhibitor of the sodium‐calcium exchanger with positive inotropic activity” (British Journal of Pharmacology, 2020) come the findings set out here.

The target in data set [1] is T1, MAO B (Homo sapiens, UniProt P27338).
T1 sequence (P27338 1-520): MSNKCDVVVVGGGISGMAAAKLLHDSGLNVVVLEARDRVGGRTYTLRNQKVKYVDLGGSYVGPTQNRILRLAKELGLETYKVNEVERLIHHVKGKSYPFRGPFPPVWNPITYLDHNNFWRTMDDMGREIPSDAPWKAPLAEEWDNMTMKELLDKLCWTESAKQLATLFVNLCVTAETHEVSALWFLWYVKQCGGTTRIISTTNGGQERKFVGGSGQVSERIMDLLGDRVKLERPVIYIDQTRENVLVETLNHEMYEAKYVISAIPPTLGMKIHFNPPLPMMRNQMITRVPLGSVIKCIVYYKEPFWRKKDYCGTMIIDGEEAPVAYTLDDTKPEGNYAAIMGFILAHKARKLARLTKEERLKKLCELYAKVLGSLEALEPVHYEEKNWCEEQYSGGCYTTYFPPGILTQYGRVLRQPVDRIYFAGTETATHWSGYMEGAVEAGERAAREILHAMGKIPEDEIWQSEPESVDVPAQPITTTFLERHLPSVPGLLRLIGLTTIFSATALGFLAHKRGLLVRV
The data set is described as follows: MAO B inhibition (Table S2). Format: biochemical.

Data set [2] has as its target hNCX1 (Homo sapiens, UniProt P32418). In words: Confirmatory fluorescence assay for hNCX1 inhibition (forward mode, HEK293 cells, Charles River). The following applies: HEK293, forward mode. Format: cell-based. As for the experimental part: A confirmatory hNCX1 inhibition assay was performed in Charles River Laboratories, Cleveland. Briefly, HEK293 cells stably expressing hNCX1 were plated in 384‐well black wall, clear‐bottom microtitre plates and the next day loaded with Fluo‐8 for 30 min at 37°C. A plate was inserted into a FLIPR^TETRA, and a baseline was recorded during a preincubation period where test compound or vehicle in a Na^+‐free HB‐PS containing thapsigargin (6 μM) and […] (30 μM) was added to each well for ~5 min. Next, the NCX1 stimulation period was recorded in which Na^+‐containing HB‐PS (with 2‐μM thapsigargin and 10‐μM FCCP) was added. The experiments were performed at room temperature. The kinetic data generated were reduced for each well to maximum relative fluorescence units (RFU) minus minimum RFU after subtracting bias based on the first sample. The mean of the max–min RFU values during the stimulation period for the 3–4 replicates at each concentration on a plate was then plotted versus concentration and fitted to a Hill equation.

Data set [3] has as its system L‐type calcium channel. The data set is described as follows: L‐type calcium channel inhibition, fluorescence assay in IMR‐32 cells. It counts as cell-based, human. The following applies: KCl depolarization, n=4 assays, read-out: L‐type Ca^2+ IC50. As for the experimental part: CHO cells stably expressing either hERG1a (KV11.1) channels (KCNH2; RRID:CVCL_H512) or human 5‐HT2B receptors were cultured at 37°C in a 5% CO2/95% air atmosphere in the Ham's Nutrient Mixture F‐12 (HAM F‐12) medium supplemented with 10% FBS (heat inactivated), 100 μg·ml^−1 of hygromycin B (Invitrogen), and 100 μg·ml^−1 of geneticin or 100 IU·ml^−1 of penicillin and 100 IU·ml^−1 of streptomycin, 25‐mM HEPES, 500 μg·ml^−1 of geneticin, and 250 μg·ml^−1 of Zeocin®. Adhered cells were detached using either Detachin® solution or trypsin and replated twice a week. HEK 293 (RRID:CVCL_0045) and IMR‐32 cells (CCL‐127; RRID:CVCL_0346) were cultured similarly but maintained instead in DMEM, supplemented with 10% FBS (heat inactivated), 100 IU·ml^−1 of penicillin and 100 IU·ml^−1 of streptomycin, and 25‐mM HEPES, and in the case of the IMR‐32 cell line, with minimum essential medium (MEM) non‐essential amino acids. IMR‐32 cells are derived from a human neuroblastoma and endogenously express L‐type (CaV1.x) calcium channel (Sher, Gotti, Pandiella, Madeddu, & Clementi, 1988).
Undifferentiated IMR‐32 cells were harvested, centrifuged, and resuspended in a probenecid‐Ringer solution consisting (in mM) 150 NaCl, 3 KCl, 1.2 MgCl2, 1 CaCl2, 20 HEPES, 5 glucose and 2.5 probenecid (pH 7.4 adjusted with NaOH, osmolarity 320–324 mOsm). We added 0.04% Pluronic F‐127 and Fluo‐4 to this solution, and after incubating the cells for 30 min at room temperature, these additives were removed from the probenecid‐Ringer solution by centrifugation and resuspension. The cell suspension was pipetted (250,000 cells in 75 μl per well) into a 96‐well plate, into which the test compound (75 μl per well at […] the final concentration; five concentrations with eight replicates) had already been added. The plate was centrifuged once (5 min, at 287 x g) to ensure that the cells were moved to the bottom of the wells. FLEXstation was then used to measure the increase in intracellular calcium at 37°C, following depolarization, which was induced by the addition (50 μl per well) of a KCl‐Ringer solution containing (in mM) 200 KCl, 20 CaCl2, 1.2 MgCl2, 20 HEPES and 2.5 probenecid respectively (pH adjusted to 7.4 with KOH, with an osmolarity of 320–324 mOsm).

The target of data set [4] is T2, MAO A (Homo sapiens, UniProt P21397).
T2 sequence (P21397 1-527): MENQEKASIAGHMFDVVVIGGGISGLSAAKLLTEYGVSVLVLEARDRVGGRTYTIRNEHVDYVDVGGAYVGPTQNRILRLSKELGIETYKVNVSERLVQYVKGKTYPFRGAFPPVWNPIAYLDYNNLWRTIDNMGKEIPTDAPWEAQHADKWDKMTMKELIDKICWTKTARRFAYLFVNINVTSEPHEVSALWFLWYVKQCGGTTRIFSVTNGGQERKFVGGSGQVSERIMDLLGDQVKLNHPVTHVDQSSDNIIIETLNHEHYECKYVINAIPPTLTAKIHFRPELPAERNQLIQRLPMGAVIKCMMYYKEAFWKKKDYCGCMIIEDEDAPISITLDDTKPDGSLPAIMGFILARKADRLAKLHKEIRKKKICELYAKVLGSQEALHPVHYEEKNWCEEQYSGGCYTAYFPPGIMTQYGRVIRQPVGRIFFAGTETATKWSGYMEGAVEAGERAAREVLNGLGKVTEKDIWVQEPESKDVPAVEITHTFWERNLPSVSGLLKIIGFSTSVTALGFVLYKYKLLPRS
In words: MAO A inhibition (Table S2). It counts as biochemical.

The target in data set [5] is hERG (Homo sapiens, UniProt Q12809). In words: hERG IC50 of Table 1 / Table S2 (method not assigned). It counts as cell-based. Particulars: n=4 assays.
hERG, sequence (Q12809 whole entry): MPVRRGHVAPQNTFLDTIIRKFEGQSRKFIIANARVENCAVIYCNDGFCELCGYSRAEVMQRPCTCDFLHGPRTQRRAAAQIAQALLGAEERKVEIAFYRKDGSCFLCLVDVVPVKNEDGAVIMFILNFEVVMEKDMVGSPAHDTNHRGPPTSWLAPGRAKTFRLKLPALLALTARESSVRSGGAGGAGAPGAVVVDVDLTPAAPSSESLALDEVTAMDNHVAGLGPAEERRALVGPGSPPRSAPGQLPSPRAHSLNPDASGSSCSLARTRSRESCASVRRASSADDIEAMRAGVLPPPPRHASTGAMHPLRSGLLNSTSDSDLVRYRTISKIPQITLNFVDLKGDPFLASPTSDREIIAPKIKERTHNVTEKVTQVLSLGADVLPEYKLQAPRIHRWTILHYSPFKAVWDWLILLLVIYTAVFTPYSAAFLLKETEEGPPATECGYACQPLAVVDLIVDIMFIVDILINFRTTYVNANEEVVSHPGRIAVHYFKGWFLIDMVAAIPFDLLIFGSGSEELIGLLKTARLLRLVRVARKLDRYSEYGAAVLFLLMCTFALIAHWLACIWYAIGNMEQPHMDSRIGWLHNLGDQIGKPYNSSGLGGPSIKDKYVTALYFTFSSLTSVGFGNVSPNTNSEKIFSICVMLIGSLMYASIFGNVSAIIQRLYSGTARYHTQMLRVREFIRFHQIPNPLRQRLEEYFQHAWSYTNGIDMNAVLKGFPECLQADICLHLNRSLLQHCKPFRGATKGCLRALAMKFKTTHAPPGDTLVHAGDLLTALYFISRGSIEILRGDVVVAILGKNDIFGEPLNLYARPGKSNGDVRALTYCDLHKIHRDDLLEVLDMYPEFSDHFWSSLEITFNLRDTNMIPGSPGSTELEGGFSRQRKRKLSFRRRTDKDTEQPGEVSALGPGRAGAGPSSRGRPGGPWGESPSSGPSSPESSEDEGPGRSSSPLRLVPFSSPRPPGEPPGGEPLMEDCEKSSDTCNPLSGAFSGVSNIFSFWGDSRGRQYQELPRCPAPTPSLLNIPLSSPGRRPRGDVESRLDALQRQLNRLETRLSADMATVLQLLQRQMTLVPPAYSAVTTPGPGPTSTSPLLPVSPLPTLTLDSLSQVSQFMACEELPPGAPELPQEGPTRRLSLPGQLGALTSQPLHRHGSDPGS
Setting [6] is: Table S2, read-out: hNCX1-HEK IC50.

Where two headings read alike, the source gives them in different places.

In the case of `Nc1cccc(-c2ccc(CNc3ccc(F)cc3)o2)c1` [ORM‐11372], the inhibition at 10 µM in data set [1] (10 μM) was 77%; in data set [4] (10 μM), 29%. The IC50 in data set [2] (0.3% DMSO, read-out: IC50 hNCX1 calcium efflux signal) came to 142 nM; in data set [2] (1% DMSO, read-out: IC50 hNCX1 calcium efflux signal), 164 nM; in data set [3], 6.1 µM; in data set [5], 10.6 µM.
For `O=C(CN1CCC(O)CC1)Nc1ccc(Oc2ccc3c(c2)CCC(c2ccccc2)O3)nc1` (stereo not shown) [ORM-10962], the “MAO B inhibition” value in data set [1] (10 μM) came out at 52%. Further, the values for the IC50 in data set [2] (setting [6]), in data set [3] and in data set [5] were 630 nM, 11.4 µM and 3.4 µM, respectively. In addition, in data set [4] (10 μM), the “MAO A inhibition” value stood at 11%.
On to `CCOc1ccc(Oc2ccc(OCc3cc(F)ccc3F)cc2)c(N)c1` [SEA0400, reference compound], for which the IC50 was 176 nM in data set [1]; 2210 nM in data set [2] (setting [6]); 3.4 µM in data set [3]; 4.34 µM in data set [4]; 2.8 µM in data set [5].

For orientation: inhibition means the relative decrease from the control value, in per cent. Broadly, the IC50 is the concentration that gives 50% inhibition.
